Structures can show the parent of a compound that is named as a salt. Where two headings read alike, the source gives them in different places.

Common to all, as to experiment: AK assay 384-well format, Prestwick library screening
One test concerns E. coli. Format: cell-based, Escherichia coli. The settings on record: for fold induction at 50 µM: Escherichia coli, 3 h.
Another test deals with E. faecium. Format: cell-based, Enterococcus faecium. Particulars: for fold induction at 50 µM: Enterococcus faecium, 3 h.
A further test deals with P. aeruginosa. The test is classed as cell-based, Pseudomonas aeruginosa. Particulars: for fold induction at 50 µM: Pseudomonas aeruginosa, 3 h.
The test system of a further test is K. pneumoniae. The test is classed as cell-based, Klebsiella pneumoniae. The settings on record: for fold induction at 50 µM: Klebsiella pneumoniae, 3 h.
In test [1] the test system is A. baumannii strain 98-37-09. Format: cell-based, Acinetobacter baumannii. Particulars: for fold induction at 50 µM: Acinetobacter baumannii, 983709, 3 h.
In test [2] the test system is S. aureus strain USA300-0114. Format: cell-based, Staphylococcus aureus. The settings on record: for fold induction at 50 µM: Staphylococcus aureus, USA300, 3 h.
The test system of another test is E. cloacae. The test is classed as cell-based, Enterobacter cloacae. Particulars: for fold induction at 50 µM: Enterobacter cloacae, 3 h.
Where [3] appears, read: 50 μM final drug concentration, […], read-out: AK-based Prestwick Library Screening Results, E. coli (fold increase in extracellular AK activity).
Where [4] appears, read: 50 μM final drug concentration, […], read-out: AK-based Prestwick Library Screening Results, E. faecium (fold increase in extracellular AK activity).
Where [5] appears, read: 50 μM final drug concentration, […], read-out: AK-based Prestwick Library Screening Results, P. aeruginosa (fold increase in extracellular AK activity).
Where [6] appears, read: 50 μM final drug concentration, […], read-out: AK-based Prestwick Library Screening Results, K. pneumoniae (fold increase in extracellular AK activity).
[7] abbreviates: 50 μM final drug concentration, […], read-out: AK-based Prestwick Library Screening Results, A. baumannii (fold increase in extracellular AK activity).
The mark [8] stands for this setting: 50 μM final drug concentration, […], read-out: AK-based Prestwick Library Screening Results, S. aureus (fold increase in extracellular AK activity).
[9] abbreviates: 50 μM final drug concentration, […], read-out: AK-based Prestwick Library Screening Results, E. cloacae (fold increase in extracellular AK activity).

Consider `NCC1(CC(=O)O)CCCCC1` [Gabapentin], for which the fold induction at 50 µM is 1.4 in the test on E. coli (setting [3]); 1 in the test on E. faecium (setting [4]); 1.3 in the test on P. aeruginosa (setting [5]); 1.1 with K. pneumoniae (setting [6]); 1.4 in test [1] (setting [7]); 1.5 in test [2] (setting [8]). Further, in the test on E. cloacae (setting [9]), the fold induction at 50 µM was 1.6.

`Br.C[N+]1([O-])[C@@H]2CC(OC(=O)[C@H](CO)c3ccccc3)C[C@H]1[C@@H]1O[C@@H]12` (some centres unmarked) [Scopolamin-N-oxide hydrobromide]: the “AK-based Prestwick Library Screening Results: E. coli (increase in extracellular AK activity)” value with E. coli (planktonic E. coli, 50 μM final drug concentration, 384-well, […]) worked out at 1.2. For the same compound, in the test with E. faecium (planktonic E. faecium, 50 μM final drug concentration, 384-well, […]), the “AK-based Prestwick Library Screening Results: E. faecium (increase in extracellular AK activity)” value is reported as 1.1. In the test on P. aeruginosa (planktonic P. aeruginosa, 50 μM final drug concentration, 384-well, […]), the “AK-based Prestwick Library Screening Results: P. aeruginosa (increase in extracellular AK activity)” value was determined as 1.3. In the test with K. pneumoniae (planktonic K. pneumoniae, 50 μM final drug concentration, 384-well, […]), the “AK-based Prestwick Library Screening Results: K. pneumoniae (increase in extracellular AK activity)” value is 1.2. The “AK-based Prestwick Library Screening Results: A. baumannii (increase in extracellular AK activity)” value in test [1] (planktonic A. baumannii, 50 μM final drug concentration, 384-well, […]) was 1.4. In addition, the “AK-based Prestwick Library Screening Results: S. aureus (increase in extracellular AK activity)” value in test [2] (planktonic S. aureus, 50 μM final drug concentration, 384-well, […]) is listed as 1.4. Moreover, the “AK-based Prestwick Library Screening Results: E. cloacae (increase in extracellular AK activity)” value with E. cloacae (planktonic E. cloacae, 50 μM final drug concentration, 384-well, […]) was 1.5.

Turning to `CCn1cc(C(=O)O)c(=O)c2cnc(N3CCCC3)nc21` [Piromidic acid], the fold induction at 50 µM worked out at 0.6 in the test with E. coli (50 μM final drug concentration, planktonic, cutoff for positive-scoring molecules 3-fold increase, read-out: AK-based Prestwick Library Screening Results, E. coli (fold increase in extracellular AK activity)); 0.9 in the test on E. faecium (50 μM final drug concentration, planktonic, cutoff for positive-scoring molecules 3-fold increase, read-out: AK-based Prestwick Library Screening Results, E. faecium (fold increase in extracellular AK activity)); 0.5 with P. aeruginosa (50 μM final drug concentration, planktonic, cutoff for positive-scoring molecules 3-fold increase, read-out: AK-based Prestwick Library Screening Results, P. aeruginosa (fold increase in extracellular AK activity)); 0.6 with K. pneumoniae (50 μM final drug concentration, planktonic, cutoff for positive-scoring molecules 3-fold increase, read-out: AK-based Prestwick Library Screening Results, K. pneumoniae (fold increase in extracellular AK activity)); 0.5 in test [1] (50 μM final drug concentration, planktonic, cutoff for positive-scoring molecules 3-fold increase, read-out: AK-based Prestwick Library Screening Results, A. baumannii (fold increase in extracellular AK activity)); 0.7 in test [2] (50 μM final drug concentration, planktonic, cutoff for positive-scoring molecules 3-fold increase, read-out: AK-based Prestwick Library Screening Results, S. aureus (fold increase in extracellular AK activity)). Also, in the test with E. cloacae (50 μM final drug concentration, planktonic, cutoff for positive-scoring molecules 3-fold increase, read-out: AK-based Prestwick Library Screening Results, E. cloacae (fold increase in extracellular AK activity)), the fold induction at 50 µM is 0.6.

`CC(Cc1ccc(O)cc1)NCC(O)c1cc(O)cc(O)c1` (centres unmarked) [Fenoterol hydrobromide]: the fold induction at 50 µM in the test on E. coli (planktonic E. coli, 50 μM final drug concentration, 384-well, […], read-out: AK-based Prestwick Library Screening Results: E. coli (increase in extracellular AK activity)) came out at 1.3; with E. faecium (planktonic E. faecium, 50 μM final drug concentration, 384-well, […], read-out: AK-based Prestwick Library Screening Results: E. faecium (increase in extracellular AK activity)) it was 1.1; with P. aeruginosa (planktonic P. aeruginosa, 50 μM final drug concentration, 384-well, […], read-out: AK-based Prestwick Library Screening Results: P. aeruginosa (increase in extracellular AK activity)), 1.1; in the test with K. pneumoniae (planktonic K. pneumoniae, 50 μM final drug concentration, 384-well, […], read-out: AK-based Prestwick Library Screening Results: K. pneumoniae (increase in extracellular AK activity)) it was 0.9; in test [1] (planktonic A. baumannii, 50 μM final drug concentration, 384-well, […], read-out: AK-based Prestwick Library Screening Results: A. baumannii (increase in extracellular AK activity)) it was 1.3; in test [2] (planktonic S. aureus, 50 μM final drug concentration, 384-well, […], read-out: AK-based Prestwick Library Screening Results: S. aureus (increase in extracellular AK activity)), 1. Besides, in the test on E. cloacae (planktonic E. cloacae, 50 μM final drug concentration, 384-well, […], read-out: AK-based Prestwick Library Screening Results: E. cloacae (increase in extracellular AK activity)), the fold induction at 50 µM stood at 1.4.

Consider `C[C@]12CC[C@H]3C(=CCc4cc(O)ccc43)[C@@H]1CCC2=O` [Equilin], for which the fold induction at 50 µM in the test on E. coli (read-out: AK-based Prestwick Library Screening Results, E. coli (fold increase in extracellular AK activity)) stood at 1.3; in the test with E. faecium (read-out: AK-based Prestwick Library Screening Results, E. faecium (fold increase in extracellular AK activity)), 1; in the test with P. aeruginosa (read-out: AK-based Prestwick Library Screening Results, P. aeruginosa (fold increase in extracellular AK activity)), 1.1; with K. pneumoniae (read-out: AK-based Prestwick Library Screening Results, K. pneumoniae (fold increase in extracellular AK activity)), 0.9; in test [1] (read-out: AK-based Prestwick Library Screening Results, A. baumannii (fold increase in extracellular AK activity)), 1; in test [2] (read-out: AK-based Prestwick Library Screening Results, S. aureus (fold increase in extracellular AK activity)), 3.9. Further, the fold induction at 50 µM with E. cloacae (read-out: AK-based Prestwick Library Screening Results, E. cloacae (fold increase in extracellular AK activity)) was 1.4.

On to `COc1ccc(OC)c(C(O)CNC(=O)CN)c1` (centres unmarked) [Midodrine hydrochloride], for which the fold induction at 50 µM in the test with E. coli (50 μM final drug concentration, 384-well format, cutoff for positive-scoring molecules 3-fold increase, read-out: AK-based Prestwick Library Screening Results, E. coli (increase in extracellular AK activity)) was 1; in the test with E. faecium (50 μM final drug concentration, 384-well format, cutoff for positive-scoring molecules 3-fold increase, read-out: AK-based Prestwick Library Screening Results, E. faecium (increase in extracellular AK activity)), 1; with P. aeruginosa (50 μM final drug concentration, 384-well format, cutoff for positive-scoring molecules 3-fold increase, read-out: AK-based Prestwick Library Screening Results, P. aeruginosa (increase in extracellular AK activity)), 0.9; in the test on K. pneumoniae (50 μM final drug concentration, 384-well format, cutoff for positive-scoring molecules 3-fold increase, read-out: AK-based Prestwick Library Screening Results, K. pneumoniae (increase in extracellular AK activity)), 0.7; in test [1] (50 μM final drug concentration, 384-well format, cutoff for positive-scoring molecules 3-fold increase, read-out: AK-based Prestwick Library Screening Results, A. baumannii (increase in extracellular AK activity)) it was 0.9; in test [2] (50 μM final drug concentration, 384-well format, cutoff for positive-scoring molecules 3-fold increase, read-out: AK-based Prestwick Library Screening Results, S. aureus (increase in extracellular AK activity)) it was 0.9. Moreover, in the test with E. cloacae (50 μM final drug concentration, 384-well format, cutoff for positive-scoring molecules 3-fold increase, read-out: AK-based Prestwick Library Screening Results, E. cloacae (increase in extracellular AK activity)), the fold induction at 50 µM was 1.

As for `CCC(=O)OCC(=O)[C@@]1(OC(=O)CC)[C@H](C)C[C@H]2[C@H]3[C@H]([C@@H](O)C[C@@]21C)[C@@]1(C)C=CC(=O)C=C1C[C@H]3Cl` [Alclometasone dipropionate], the fold induction at 50 µM in the test on E. coli (setting [3]) amounted to 1.1; in the test on E. faecium (setting [4]), 1; in the test with P. aeruginosa (setting [5]), 1; in the test on K. pneumoniae (setting [6]), 1.1; in test [1] (setting [7]) it was 0.9; in test [2] (setting [8]), 1.1. Also, in the test on E. cloacae (setting [9]), the fold induction at 50 µM is 1.2.

Turning to `CC[C@H](CC[C@@H](C)[C@H]1CC[C@H]2[C@@H]3CC=C4C[C@@H](O)CC[C@]4(C)[C@H]3CC[C@]12C)C(C)C` [Beta-sistosterol], the “AK-based Prestwick library screening result, E. coli (fold increase in extracellular AK activity)” value in the test with E. coli (planktonic E. coli, 50 μM final drug concentration, […]) is 0.8. Moreover, the “AK-based Prestwick library screening result, E. faecium (fold increase in extracellular AK activity)” value in the test with E. faecium (planktonic E. faecium, 50 μM final drug concentration, […]) stood at 0.9. For the same compound, the “AK-based Prestwick library screening result, P. aeruginosa (fold increase in extracellular AK activity)” value in the test with P. aeruginosa (planktonic P. aeruginosa, 50 μM final drug concentration, […]) is 0.8. Moreover, in the test with K. pneumoniae (planktonic K. pneumoniae, 50 μM final drug concentration, […]), the “AK-based Prestwick library screening result, K. pneumoniae (fold increase in extracellular AK activity)” value is on record as 0.8. Besides, the “AK-based Prestwick library screening result, A. baumannii (fold increase in extracellular AK activity)” value in test [1] (planktonic A. baumannii, 50 μM final drug concentration, […]) stood at 0.8. Moreover, in test [2] (planktonic S. aureus, 50 μM final drug concentration, […]), the “AK-based Prestwick library screening result, S. aureus (fold increase in extracellular AK activity)” value is reported as 0.7. Besides, the “AK-based Prestwick library screening result, E. cloacae (fold increase in extracellular AK activity)” value in the test with E. cloacae (planktonic E. cloacae, 50 μM final drug concentration, […]) is 1.1.

The values above are taken from patent US10004701B2, “Methods and compositions for treating infection” (UNIVERSITY OF ROCHESTER, priority 2012, dated 2018).
